Target: T1, CYP1B1 (Homo sapiens, UniProt Q16678)
T1 sequence (Q16678 1-543): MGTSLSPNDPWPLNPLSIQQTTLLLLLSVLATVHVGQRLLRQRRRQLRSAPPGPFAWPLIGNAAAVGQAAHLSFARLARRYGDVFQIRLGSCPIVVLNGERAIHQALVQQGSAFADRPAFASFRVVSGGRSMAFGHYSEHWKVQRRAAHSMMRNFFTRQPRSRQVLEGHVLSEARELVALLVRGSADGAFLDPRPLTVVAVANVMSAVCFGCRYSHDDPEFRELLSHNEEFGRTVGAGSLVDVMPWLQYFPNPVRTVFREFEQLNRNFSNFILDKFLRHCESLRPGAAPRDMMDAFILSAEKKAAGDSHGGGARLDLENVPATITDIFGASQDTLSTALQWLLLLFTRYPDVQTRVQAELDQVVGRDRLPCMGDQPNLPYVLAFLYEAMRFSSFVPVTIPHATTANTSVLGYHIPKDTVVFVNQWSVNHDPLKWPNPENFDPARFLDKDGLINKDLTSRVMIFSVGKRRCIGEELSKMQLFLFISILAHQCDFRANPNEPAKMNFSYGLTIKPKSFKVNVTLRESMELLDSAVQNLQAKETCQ
Assay: In-vitro CYP450 1B1 enzyme inhibition in Saccharosomes
Assay type: biochemical
Design: purchased CYP Design Ltd; host or cells: yeast microsomes (Saccharosomes)
Method: Example 24. In-vitro CYP450 1B1 enzyme inhibition in Saccharosomes™: Regenerating system consists of: 5 μl Solution A (183 mg of NADP++183 mg of glucose-6-phosphate+654 μl of 1.0 M magnesium chloride solution+9.15 ml of sterile ultra-pure water)+1 μl Solution B (250 Units of glucose-6-phosphate dehydrogenase+6.25 ml of 5 mM sodium citrate; mixed in a tube and made up to 10 ml with sterile ultra-pure water)+39 μl 0.2 M Kpi (0.6 ml of 1.0M K2HPO4+9.4 ml of 1.0 M KH2PO4 were mixed and made up to 50 ml with sterile ultra-pure water)+5 μl potential inhibitory compound.
Example 25. IC50 determination for best compound against CYP1A1, CYP1B1 and other CYPs in Saccharosomes. Compounds were serially diluted to six different concentrations with 10% DMSO in a Sero-Well white microplate. The experiment was performed in a similar way as described above in examples 23 and 24.

IC50: 660 nM
% inhibition of CYP1B1 in Saccharosomes at 10 μM (10 μM test compound, 7-ethoxyresorufin, 10 µM): 80.3%
inhibition at 10 μM (human, Saccharosomes (yeast-derived) with recombinant CYP1B1, probe 7-ethoxyresorufin (5 μl of 0.1 mM), % inhibition of CYP1B1 in Saccharosomes at 10 μM, 10 μM test compound, 7-ethoxyresorufin): > 80%
Structure (SMILES): COc1c(C(=O)/C=C/c2cccnc2)c(O)c(OC)c2occc12 [Compound 8, 3-(4,7-dimethoxy-6-hydroxybenzofuran-5-yl)-1-(pyridin-3-yl)-3-oxopropene]

— patent US20210284618A1, “FURANOCHALCONES AS INHIBITORS OF CYP1A1, CYP1A2 AND CYP1B1 FOR CANCER CHEMOPREVENTION” (Council of Scientific & Industrial Research, priority 2016, published 2021)
